Paper PMC6469167, “Cholecystokinin-2 Receptor Targeting with Novel C-terminally Stabilized HYNIC-Minigastrin Analogs Radiolabeled with Technetium-99m” (Pharmaceuticals, 2019)

Legend:
[1] = physchem; assay type: physicochemical
Procedure: The resistance against degradation of [^99mTc]Tc-HYNIC-MGS5 and [^99mTc]Tc-HYNIC-MGS11 (1000 pmol/mL, n = 2) in human serum was studied for up to 24 h. Furthermore, the radiopeptides were incubated in PBS (1000 pmol/mL, n = 1). At each time point of 1, 2, 4 and 24 h after incubation the intact radiopeptide was assessed by analytical HPLC. Serum samples were precipitated with ACN and centrifuged to collect the supernatant and diluted with water prior to radio-HPLC. […] From each phase a 75 µL sample was taken, the radioactivity measured in a 2480 Wizard^2 automatic gamma-counter (PerkinElmer Life Sciences and Analytical Sciences, Wallac Oy, Turku, Finland) and the distribution of the radiopeptides calculated. The protein binding in human serum (500 pmol/mL, n = 2) was assessed by Sephadex G-50 size-exclusion chromatography (GE Healthcare Illustra, Little Chalfont, UK) for up to 24 h.

[2] = system: A431-CCK2R and A431-mock tumor-xenografts; parameters: species or system athymic BALB/c nude mice; settings: mouse, in vivo
Procedure: Biodistribution studies evaluating the tumor uptake of [^99mTc]Tc-HYNIC-MGS5 and [^99mTc]Tc-HYNIC-MGS11 were performed in 7 week-old female athymic BALB/c nude mice (Charles River, Sulzfeld, Germany). To induce tumor-xenografts, mice were injected subcutaneously with 2 × 10^6 A431-CCK2R (right flank) and A431-mock cells (left flank). The tumor-xenografts were allowed to grow for 11–12 days reaching medium tumor weights of ~0.2 g. Mice were randomly divided into groups of four and injected intravenously via a lateral tail vein with 0.3 MBq of the ^99mTc-labeled HYNIC-analogs (corresponding to ~15 pmol total peptide). The groups of animals were sacrificed at 1 h and 4 h p.i., tumors and other tissues (blood, lung, heart, muscle, bone, spleen, intestine, liver, kidney, stomach and pancreas) were removed, weighed, and the radioactivity measured together with a standard in the gamma counter. Results were expressed as percentage of injected activity per gram tissue (% IA/g) and tumor-to-organ activity ratios were calculated for selected tissues. […] The radioactivity in selected organs (stomach, pancreas, liver, kidneys, A431-CCK2R and A431-mock xenograft) was additionally visualized by autoradiography using a phosphorimager (Cyclone Plus, PerkinElmer Life Sciences and Analytical Sciences, Downers Grove, Il, USA). […]

Row | SMILES | logD [1] | tumor-to-kidney ratio [2]
1 | CCCC[C@@H](C(=O)N[C@@H](CC(=O)O)C(=O)N[C@@H](Cc1cccc2ccccc12)C(N)=O)N(C)C(=O)[C@H](Cc1c[nH]c2ccccc12)NC(=O)CNC(=O)[C@H](Cc1ccc(O)cc1)NC(=O)[C@H](C)NC(=O)[C@@H](CCC(=O)O)NC(=O)c1ccc(NN)nc1 [[^99mTc]Tc-HYNIC-MGS5, metal not drawn] | -2.91 ± 0.06 | 2.4–3.3
2 | CCCC[C@@H](C(=O)N[C@@H](CC(=O)O)C(=O)N(C)[C@@H](Cc1cccc2ccccc12)C(N)=O)N(C)C(=O)[C@H](Cc1c[nH]c2ccccc12)NC(=O)CNC(=O)[C@H](Cc1ccc(O)cc1)NC(=O)[C@H](C)NC(=O)[C@@H](CCC(=O)O)NC(=O)c1ccc(NN)nc1 [[^99mTc]Tc-HYNIC-MGS11, metal not drawn] | -2.84 ± 0.08 | 2.0–2.6
